Measurements as given in ChEMBL document CHEMBL1949630, “Discovery of benzodihydroisofurans as novel, potent, bioavailable and brain-penetrant prolylcarboxypeptidase inhibitors” (Bioorg Med Chem Lett, 2012).
pIC50: −log10 of the molar value.

What was measured:
[1] = Oral bioavailability in C57BL/6 mouse at 2 mg/kg by LC/MS/MS analysis; type: ADME, organism-based; conditions: in vivo
[2] = Half life in C57BL/6 mouse at 1 mg/kg, iv and 2 mg/kg, po by LC/MS/MS analysis; type: ADME, organism-based; conditions: in vivo
[3] = target: T1, Lysosomal Pro-X carboxypeptidase (Mus musculus, UniProt Q7TMR0); experiment: Inhibition of PrCP in mouse plasma assessed as angiotensin 3 cleavage by whole serum shift assay
T1 sequence (Q7TMR0 whole entry): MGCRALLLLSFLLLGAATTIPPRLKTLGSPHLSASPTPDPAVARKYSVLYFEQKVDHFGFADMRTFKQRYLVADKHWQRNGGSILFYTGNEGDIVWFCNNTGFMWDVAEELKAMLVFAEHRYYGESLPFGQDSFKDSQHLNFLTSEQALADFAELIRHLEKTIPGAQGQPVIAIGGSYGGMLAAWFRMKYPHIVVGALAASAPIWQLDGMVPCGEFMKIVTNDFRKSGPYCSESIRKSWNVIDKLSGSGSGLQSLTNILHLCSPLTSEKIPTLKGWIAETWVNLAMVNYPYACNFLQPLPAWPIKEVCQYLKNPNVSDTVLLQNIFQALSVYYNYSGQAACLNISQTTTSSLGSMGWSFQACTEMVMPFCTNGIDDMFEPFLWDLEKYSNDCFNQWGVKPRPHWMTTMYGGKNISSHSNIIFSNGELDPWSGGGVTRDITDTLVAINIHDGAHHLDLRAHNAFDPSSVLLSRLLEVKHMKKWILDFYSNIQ

[4] = Clearance in C57BL/6 mouse at 1 mg/kg, iv and 2 mg/kg, po by LC/MS/MS analysis; type: ADME, organism-based; conditions: in vivo
[5] = Volume of distribution at steady state in C57BL/6 mouse at 1 mg/kg, iv and 2 mg/kg, po by LC/MS/MS analysis; type: ADME, organism-based; conditions: in vivo, read-out: Vdss
Mus musculus [6] = experiment: Dose normalized AUC in C57BL/6 mouse at 2 mg/kg by LC/MS/MS analysis; type: ADME, organism-based; design: dose 2 mg/kg; conditions: in vivo
[7] = target: T1, Lysosomal Pro-X carboxypeptidase; experiment: Inhibition of mouse PrCP
[8] = Volume of distribution at steady state in C57BL/6 mouse at 0.5 mg/kg, iv and 1 mg/kg, po by LC/MS/MS analysis; type: ADME, organism-based; conditions: in vivo, read-out: Vdss
[9] = Clearance in C57BL/6 mouse at 0.5 mg/kg, iv and 1 mg/kg, po by LC/MS/MS analysis; type: ADME, organism-based; conditions: in vivo
[10] = Half life in C57BL/6 mouse at 0.5 mg/kg, iv and 1 mg/kg, po by LC/MS/MS analysis; type: ADME, organism-based; conditions: in vivo
Mus musculus [11] = experiment: Dose normalized AUC in C57BL/6 mouse at 1 mg/kg by LC/MS/MS analysis; type: ADME, organism-based; design: dose 1 mg/kg; conditions: in vivo
[12] = Oral bioavailability in C57BL/6 mouse at 1 mg/kg by LC/MS/MS analysis; type: ADME, organism-based; conditions: in vivo
[13] = Fraction unbound in mouse plasma; type: ADME, cell-free
[14] = Fraction unbound in human plasma; type: ADME, cell-free

Row | SMILES | bioavailability [1] | half-life [2] | clearance [4] | Vd [5] | AUC/dose (Mus musculus [6]) | Vd [8] | clearance [9] | fraction unbound [13] | fraction unbound [14] | pIC50 [3] | pIC50 [7] | half-life [10] | AUC/dose (Mus musculus [11]) | bioavailability [12]
1 | Fc1ccc(CN2CCC3(CC2)OC(c2cc(Cl)cc(Cl)c2)c2ccccc23)nc1 (centres undefined) |  |  |  |  |  | 16 L/kg | 1.68 L/h/kg |  |  |  | 8.60 | 7 h | 1.36 µM·kg·h/mg | 22%
2 | FC(F)(F)Oc1ccc(CN2CCC3(CC2)OC(c2cc(Cl)cc(Cl)c2)c2cccnc23)cc1 (centres undefined) |  |  |  |  |  | 8.2 L/kg | 1.68 L/h/kg |  |  |  | 8.85 | 4 h | 0.26 µM·kg·h/mg | 22%
3 | Clc1cc(Cl)cc(C2OC3(CCN(Cc4cc5ccccc5o4)CC3)c3ccccc32)c1 (racemic) |  |  |  |  |  |  |  |  |  | < 6.00 | 8.60 |  |  | 
4 | FC(F)(F)c1ccc(CN2CCC3(CC2)OC(c2cc(Cl)cc(Cl)c2)c2ccccc23)nc1 (racemic) |  |  |  |  |  | 11 L/kg | 3.06 L/h/kg |  |  | 6.84 | 9.15 | 4.1 h | 0.11 µM·kg·h/mg | 16%
5 | Clc1cc(Cl)cc(C2OC3(CCN(Cc4ccc(N5CCCC5)cn4)CC3)c3ccccc32)c1 (racemic) |  |  |  |  |  | 4.7 L/kg | 0.456 L/h/kg |  |  |  | 7.77 | 8.5 h | 1.22 µM·kg·h/mg | 23%
6 | FC(F)(F)Oc1ccc(CN2CCC3(CC2)OC(c2cc(Cl)cc(Cl)c2)c2ccncc23)cc1 (racemic) |  |  |  |  |  | 15 L/kg | 2.1 L/h/kg |  |  | 6.42 | 8.89 | 6.1 h | 0.28 µM·kg·h/mg | 29%
7 | FC(F)(F)Oc1ccc(CN2CCC3(CC2)OC(c2cc(Cl)cc(Cl)c2)c2cnccc23)cc1 (racemic) |  |  |  |  |  |  |  |  |  | 6.37 | 8.28 |  |  | 
8 | FC(F)(F)Oc1ccc(CN2CCC3(CC2)OC(c2ccccn2)c2ccccc23)cc1 (racemic) |  |  |  |  |  | 26 L/kg | 4.2 L/h/kg |  |  |  | 7.70 | 5 h | 0.14 µM·kg·h/mg | 25%
9 | CC(c1ccc(F)cn1)N1CCC2(CC1)OC(c1cc(Cl)ccn1)c1cccnc12 (racemic) |  |  |  |  |  | 17 L/kg | 7.62 L/h/kg |  |  | 7.72 | 7.97 | 2.1 h | 0.008 µM·kg·h/mg | 2.6%
10 | CC(C)(c1ccc(OC(F)(F)F)cc1)N1CCC2(CC1)OC(c1cc(Cl)ccn1)c1cccnc12 (racemic) |  |  |  |  |  |  |  |  |  | 6.45 | 9.41 | > 8 h | 0.41 µM·kg·h/mg | 41%
11 | [O-][n+]1ccc(Cl)cc1C1OC2(CCN(Cc3ccc(OC(F)(F)F)cc3)CC2)c2ccccc21 (single isomer, unassigned) | 72% | 5.6 h | 3.42 L/h/kg | 27 L/kg | 0.43 µM·kg·h/mg |  |  | 0.007 | 0.006 |  | 9.42 |  |  | 

Now from value to compound, other results behind:

Row | bioavailability [1] | half-life [2] | clearance [4] | Vd [5] | AUC/dose (Mus musculus [6]) | Vd [8] | clearance [9] | fraction unbound [13] | fraction unbound [14] | SMILES | pIC50 [3] | pIC50 [7] | half-life [10] | AUC/dose (Mus musculus [11]) | bioavailability [12]
12 | 53% | 7 h | 0.486 L/h/kg | 4.4 L/kg | 2.16 µM·kg·h/mg |  |  |  |  | FC(F)(F)Oc1ccc(CN2CCC3(CC2)OC(c2cc(Cl)cc(Cl)c2)c2ccccc23)cc1 (centres undefined) | < 6.00 | 9.00 |  |  | 
13 |  |  |  |  |  | 19 L/kg | 4.14 L/h/kg |  |  | CC(c1ccc(F)cn1)N1CCC2(CC1)OC(c1cc(Cl)cc(Cl)c1)c1cccnc12 (centres undefined) | 7.85 | 8.96 | 4 h | 0.028 µM·kg·h/mg | 5.4%
14 |  |  |  |  |  | 14 L/kg | 1.8 L/h/kg |  |  | FC(F)(F)Oc1ccc(CN2CCC3(CC2)OC(c2ccc(Cl)cn2)c2ccccc23)cc1 (racemic) |  | 7.60 | 6.5 h | 0.46 µM·kg·h/mg | 35%
15 | 47% | 5 h | 4.44 L/h/kg | 28 L/kg | 0.23 µM·kg·h/mg |  |  |  |  | FC(F)(F)Oc1ccc(CN2CCC3(CC2)OC(c2cc(Cl)ccn2)c2cccnc23)cc1 (racemic) |  | 8.24 |  |  | 
16 |  |  |  |  |  | 13 L/kg | 5.76 L/h/kg |  |  | CC(c1ccc(F)cn1)N1CCC2(CC1)OC(c1cc(Cl)ccn1)c1ccccc12 (racemic) |  |  | 1.7 h | 0.032 µM·kg·h/mg | 7.8%
17 |  |  |  |  |  | 9.5 L/kg | 1.98 L/h/kg | < 0.0006 | < 0.0006 | O=S(=O)(c1ccc(OC(F)(F)F)cc1)N1CCC2(CC1)OC(c1cc(Cl)cc(Cl)c1)c1cccnc12 (racemic) | 6.15 | 8.74 | 4.8 h | 0.33 µM·kg·h/mg | 36%
18 |  |  |  |  |  | 14 L/kg | 1.86 L/h/kg |  |  | CC(c1ccc(F)cn1)N1CCC2(CC1)OC(c1cc(Cl)cc(Cl)c1)c1ccccc12 (racemic) | 7.05 | 9.51 | 5.9 h | 0.27 µM·kg·h/mg | 22%
19 |  |  |  |  |  | 20 L/kg | 7.56 L/h/kg |  |  | OCC(c1ccccc1)N1CCC2(CC1)OC(c1cc(Cl)cc(Cl)c1)c1cccnc12 (racemic) |  | 6.96 | 2.3 h | 0.05 µM·kg·h/mg | 17%
20 |  |  |  |  |  | 7.3 L/kg | 2.28 L/h/kg |  |  | CC(C)(O)C(c1ccccc1)N1CCC2(CC1)OC(c1cc(Cl)cc(Cl)c1)c1cccnc12 (racemic) |  | 8.28 | 3.4 h | 0.11 µM·kg·h/mg | 16%
21 |  |  |  |  |  | 12 L/kg | 5.22 L/h/kg | 0.025 | 0.05 | O=S(=O)(c1ccc(C(F)(F)F)cn1)N1CCC2(CC1)OC(c1cc(Cl)cc[n+]1[O-])c1ccccc12 (racemic) |  | 9.96 | 2.1 h | 0.1 µM·kg·h/mg | 23%
